One test deals with P388 murine leukemia cells. In words: Cytotoxicity against P388 murine leukemia cells (MTT assay). The settings on record: Mus musculus, P388, P388 cells 2.5x10³ per well, sample added after 24 hours, cultivated 3 days at 37°C, 5% CO₂, absorption at 540 nm, read-out: IC₅₀. The test is classed as cell-based. As for the experimental part: P388 murine leukemia cells were spread over a 96-well microplate, 2.5x10³ cells per well. A sample to be tested was added after 24 hours. Cells were cultivated under the conditions of 5% CO₂ at 37°C for 3 days. 3-(4,5-Dimethylthiazol-2-yl)-2,5-diphenyl-2H-tetrazolium bromide (MTT) was added 4 hours after the addition of the sample. Upon the addition of 200 µl/ml of isopropyl alcohol containing 0.04 N HCl the absorption at 540 nm was measured to determine IC₅₀.
(In general: Formazan colour is commonly taken as a measure of viable cells.)
For `CC[C@@]1(O)C(=O)OCc2c1cc1n(c2=O)Cc2c-1nc1ccc(OC)c3c1c2CCC3N.Cl` (single isomer, unassigned) [Example 7 (Isomer A)], the IC50 worked out at 0.0114 µg/mL.

Staying with this test, now noted: P388 cells 2.5x10³ per well, sample added after 24 hours, cultivated 3 days at 37°C, 5% CO₂, absorption at 540 nm, hydrochloride.
Take `CC[C@@]1(O)C(=O)OCc2c1cc1n(c2=O)Cc2c-1nc1ccc(OC)c3c1c2C(N)CC3.Cl` (single isomer, unassigned) [Example 4 (Isomer B)]: the IC₅₀ was 27.80 ng/mL.
The same measure, in the same setting: for `CC[C@@]1(O)C(=O)OCc2c1cc1n(c2=O)Cc2c-1nc1cccc3c1c2C(N)CC3.Cl` (single isomer, unassigned) [Example 2 (Isomer A)] the value was 3.38 ng/mL; for `CC[C@@]1(O)C(=O)OCc2c1cc1n(c2=O)Cc2c-1nc1ccc(OC)c3c1c2C(N)CC3.Cl` (single isomer, unassigned) [Example 4 (Isomer A)], 9.21 ng/mL; for `CC[C@@]1(O)C(=O)OCc2c1cc1n(c2=O)Cc2c-1nc1ccc(OC)c3c1c2CCC3N.Cl` (single isomer, unassigned) [Example 7 (Isomer B)], 11.90 ng/mL.
For the compound `CC[C@@]1(O)C(=O)OCc2c1cc1n(c2=O)Cc2c-1nc1cccc3c1c2C(N)CC3.Cl` (single isomer, unassigned) [Example 2 (Isomer B)], the IC₅₀ stood at 12.40 ng/mL.

The values are drawn from patent EP0495432A1, “Hexa-cyclic compound” (DAIICHI PHARMACEUTICAL CO., LTD., priority 1991, dated 1992).
